Test system: hPSC-derived DA neurons
Experiment: Whole cell patch clamp electrophysiology of GS-treated neurons
Assay type: cell-based, human
Details: current clamp, after 90 days of GS treatment
Method: Whole cell patch clamp electrophysiology methods. For electrophysiological recordings, the cells were transferred to a recording chamber mounted on an inverted Olympus microscope. During the recordings the temperature was maintained at 31-32° C., and the cells perfused at constant flow of 1 ml/min. with 150 mM NaCl, 4 mM KCl, 1.8 mM CaCl2, 1 mM MgCl2, 10 mM HEPES, 10 mM Glucose at pH 7.30 and 315 mOsm. Whole-cell recordings were obtained using borosilicate electrodes with tip resistance of 2-3 MΩ, filled with 130 mM K-Gluconate, 5 mM NaCl, 5 mM KCl, 10 mM HEPES, 20 mM Sucrose, 0.3 mM EGTA, 3 mM MgATP at pH 7.30 and 290 mOsm. Data were acquired using an HEKA EPC-10 digitizer/amplifier. Once whole-cell access was achieved the resting membrane potential was immediately recorded; the cells were then allowed to equilibrate for 3-5 min. From a resting membrane potential of −70 mV, the cells were then depolarized in current-clamp mode with 200 ms current injections, delivered at 0.2 Hz., and with increasing amplitude from 50 pA to up to 1000 pA to induce action potentials. The presence of inward or outward currents was determined by applying a voltage ramp. Cells with unstable recording configuration or for which the series resistance became larger than 15MΩ were excluded from the study. Twenty different cells were recorded and action potentials were obtained from 7 patch-clamped cells.

## C/C=C1\C(=O)C[C@H]2[C@@H]3CCC4=CC(=O)CC[C@]4(C)[C@H]3CC[C@]12C [Guggulsterone]
  patch-clamped cells in which action potentials were found: 7 out of 20
